Measurements published in patent US20250002527A1, “STEROID COMPOUND AND CONJUGATE THEREOF” (DUALITY BIOLOGICS (SUZHOU) CO., LTD., priority 2021, published 2025).

Key:
Assay type in all cases: cell-based
[1] = target: T1, ERα (Homo sapiens, UniProt P03372); assay: ERα luciferase reporter gene experiment; conditions: HEK293 transfected with pBIND-ERα
T1 sequence (P03372 311-547 limits assumed): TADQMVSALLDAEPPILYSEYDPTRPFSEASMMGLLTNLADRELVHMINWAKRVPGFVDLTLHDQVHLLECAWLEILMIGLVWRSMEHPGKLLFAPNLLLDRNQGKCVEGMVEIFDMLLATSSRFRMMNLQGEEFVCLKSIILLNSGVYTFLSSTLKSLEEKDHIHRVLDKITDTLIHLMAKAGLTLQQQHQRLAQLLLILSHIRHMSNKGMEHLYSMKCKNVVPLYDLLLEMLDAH
Procedure: (§1) HEK293 cells were cultured in DMEM+10% FBS medium in a carbon dioxide incubator humidified at 37° C. at 5% carbon dioxide.
(§2) • 1) HEK293 cells were trypsinized, and the HEK293 cell resuspension was adjusted to 200,000 cell/mL in medium (96 well plate: 100 μL/well). • 2) Transfection reagent mixtures were prepared according to the table below, mixed well and left at room temperature for 20 minutes.
(§3) • 3) The prepared transfection mixtures were added to 10 mL of the cell density-adjusted resuspension, mixed well by turning the mixtures upside down, and seeded into a 96-well plate at a volume of 100 μL/well. • 4) The 96-well plate was incubated in a humidified incubator at 37° C. and 5% carbon dioxide for 24 hours.
(§4) The test plate was detected using the Dual-Glo Luciferase Assay System kit from Promega, and the fluorescence signal of Firefly Luciferase and the fluorescence signal of Renilla Luciferase were read using Enspire, respectively.
(§5) Y is the agonism and X is the concentration of the compound.

[2] = target: T2, MR (Homo sapiens, UniProt P08235); assay: MR luciferase reporter gene experiment; conditions: HEK293 transfected with pBIND-MR
T2 construct: expressed in transfected cells; host or cells: HEK293
T2 sequence (P08235 1-984): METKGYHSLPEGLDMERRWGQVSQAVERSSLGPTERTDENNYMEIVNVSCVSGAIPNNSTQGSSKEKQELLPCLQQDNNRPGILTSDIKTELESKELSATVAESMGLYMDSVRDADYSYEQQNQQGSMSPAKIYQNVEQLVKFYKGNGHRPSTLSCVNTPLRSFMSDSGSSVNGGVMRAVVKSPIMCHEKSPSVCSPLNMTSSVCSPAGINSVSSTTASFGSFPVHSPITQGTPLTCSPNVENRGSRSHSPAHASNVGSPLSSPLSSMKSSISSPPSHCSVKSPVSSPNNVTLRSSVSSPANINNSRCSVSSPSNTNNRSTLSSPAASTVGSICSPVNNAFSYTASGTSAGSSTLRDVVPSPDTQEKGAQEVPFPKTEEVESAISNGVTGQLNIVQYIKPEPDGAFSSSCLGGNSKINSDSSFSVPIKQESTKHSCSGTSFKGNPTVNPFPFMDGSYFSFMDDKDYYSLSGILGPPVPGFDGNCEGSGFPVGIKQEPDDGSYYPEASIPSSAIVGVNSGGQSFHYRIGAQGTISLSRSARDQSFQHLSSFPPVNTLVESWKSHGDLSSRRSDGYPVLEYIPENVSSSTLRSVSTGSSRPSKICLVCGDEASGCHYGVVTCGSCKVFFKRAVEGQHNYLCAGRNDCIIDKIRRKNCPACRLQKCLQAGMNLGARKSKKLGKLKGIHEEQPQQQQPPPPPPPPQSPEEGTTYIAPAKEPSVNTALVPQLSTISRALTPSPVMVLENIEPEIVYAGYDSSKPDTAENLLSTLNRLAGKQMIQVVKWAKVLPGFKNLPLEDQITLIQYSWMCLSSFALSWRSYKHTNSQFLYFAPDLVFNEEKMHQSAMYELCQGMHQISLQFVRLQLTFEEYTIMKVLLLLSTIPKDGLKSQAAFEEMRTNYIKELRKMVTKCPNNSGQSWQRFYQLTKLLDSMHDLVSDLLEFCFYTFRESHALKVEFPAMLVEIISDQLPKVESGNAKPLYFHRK
Procedure: as §1, §2, §3, §4, §5

[3] = tested on: human PBMC cells; assay: IFN-α secretion from PBMC under R848 stimulation (compounds); conditions: R848 5 μM, 24 hours, mean ± standard deviation
Procedure: The compounds of the present application were tested for their inhibitory effect on the production of peripheral blood monocytes. The peripheral blood monocytes were treated in vitro with the ligand-drug conjugate at different concentrations, and IFNα and TNFα generated by the peripheral blood monocytes were quantitatively detected after a certain time. The compounds of the present invention were evaluated for in-vitro activity.
The cryopreserved human PBMC cells were resuspended in a complete medium and counted, and the cell suspension was adjusted to 2.5×10*6 cells/mL with the culture medium. After the suspension was centrifuged to collect the cells the next day, the cells were resuspended using fresh culture medium. Test compounds were diluted to 4-fold final concentration in cell culture medium, 50 μL of the compounds were added into a 96-well cell plate, and 100 μL of diluted cells ([…]) were added into each well of the 96-well plate containing the compounds, followed by addition of 50 μL R848 to a final concentration of 5 μM. The cell plate was incubated at 37° C. with 5% CO2 for 24 hours. The supernatant was collected, and the TNF-α and IFN-α concentration levels in the supernatant were detected using an ELISA kit.
50 μL of biotinylated antibody working solution was added into each well. After mixing well, the plate was covered with the plate-sealing membrane and incubated at room temperature for 3 hours. […] The procedure was repeated for 3 times. 100 μL of Streptavidin-HRP working solution was added into each well. The plate was covered with the plate-sealing membrane and incubated at room temperature for 20 minutes. The plate was washed for 3 times, 100 μL of TMB liquid was added into each well, and the plate was incubated for 25 minutes at room temperature (18-25° C.) in the dark. The reaction was stopped by adding 100 μL stop solution rapidly to each well. The reading at a wavelength of 450 nm was detected by an M2e instrument within 10 minutes after termination.
The contents of TNF-α and IFN-α were calculated from the OD450 values.

[4] = target: T3, glucocorticoid receptor (Homo sapiens, UniProt P04150); assay: Measurement 2 of glucocorticoid receptor reporter gene GRE activity (HEK293 GRE cells); conditions: 24 hours
T3 construct: expressed in transfected cells; host or cells: HEK293
T3 sequence (P04150 1-777): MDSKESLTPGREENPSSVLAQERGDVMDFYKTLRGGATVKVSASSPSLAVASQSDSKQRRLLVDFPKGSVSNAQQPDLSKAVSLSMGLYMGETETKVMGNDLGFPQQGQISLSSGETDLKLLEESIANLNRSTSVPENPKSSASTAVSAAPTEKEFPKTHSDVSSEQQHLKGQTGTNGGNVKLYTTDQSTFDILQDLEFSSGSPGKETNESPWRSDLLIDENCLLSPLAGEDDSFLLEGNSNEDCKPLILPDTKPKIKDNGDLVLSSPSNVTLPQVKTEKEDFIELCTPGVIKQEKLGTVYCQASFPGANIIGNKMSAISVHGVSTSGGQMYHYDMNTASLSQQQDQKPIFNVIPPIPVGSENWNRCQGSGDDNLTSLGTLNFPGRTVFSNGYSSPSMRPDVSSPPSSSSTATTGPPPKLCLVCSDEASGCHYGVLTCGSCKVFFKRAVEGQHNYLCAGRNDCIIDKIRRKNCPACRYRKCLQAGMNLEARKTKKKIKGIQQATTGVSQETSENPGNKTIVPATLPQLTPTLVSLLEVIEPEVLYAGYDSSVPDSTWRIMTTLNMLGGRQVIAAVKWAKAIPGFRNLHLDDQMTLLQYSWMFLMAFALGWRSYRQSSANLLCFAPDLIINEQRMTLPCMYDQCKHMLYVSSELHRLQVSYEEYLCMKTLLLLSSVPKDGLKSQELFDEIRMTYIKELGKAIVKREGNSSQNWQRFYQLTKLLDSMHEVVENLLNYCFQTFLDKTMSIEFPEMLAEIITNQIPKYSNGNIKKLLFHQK

EC50 [1] [µM]	EC50 [2] [µM]	SMILES	IFN-α secretion (pg/mL) from PBMC under R848 stimulation ([3]; compound 4 nM)	IFN-α secretion (pg/mL) from PBMC under R848 stimulation ([3]; compound 20 nM) [pg/mL]	IFN-α secretion (pg/mL) from PBMC under R848 stimulation ([3]; compound 100 nM) [pg/mL]	EC50 [4] [µM]
> 1	> 1	C[C@]12C=CC(=O)C=C1CC[C@@H]1[C@@H]2[C@@H](O)C[C@@]2(C)[C@H]1C[C@H]1O[C@@H](c3ccc(Cc4cccc(CO)c4)cc3)O[C@]12C(=O)CO [Compound 3]	–	–	–	–
–	–	C[C@]12C=CC(=O)C=C1CC[C@@H]1[C@@H]2[C@@H](O)C[C@@]2(C)[C@H]1C[C@H]1O[C@@H](c3ccc(Cc4ccc(CO)c(N)c4)cc3)O[C@]12C(=O)CO [Compound 6]	99.8 ± +5.7 pg/mL	45.9 ± 45.9	6.9 ± 6.9	0.00012
